According to patent publication US5412125A, “Dipeptidic amides derived from glycyl-serine as surfactants or hydrating agents and cosmetic, pharmaceutical or alimentary compositions containing the same” (L'Oreal, priority 1991, dated 1995):
Where a SMILES comes first, the peptide text is derived from it. The star is where a group is joined. Lauroyl = CCCCCCCCCCCC(=O)*

Experiment: Foaming power study (brush-developed foam in graduated cylinder)
Type: physicochemical
Conditions: 5% aqueous solution (weight/volume), 5 ml with 6 mg natural feminine sebum; after 180 sec stirring
Experimental: The test consists in developing the foam using a brush made of natural hog bristles (length=[…]) displaced in a plexiglass graduated cylindrical container (inside diameter=35 mm). This container is driven in a uniform circular motion which is the reverse of that described by the brush. This permits a good distribution of the foam in the graduated container despite the small amounts developed. (brush speed=100 rpm, container speed=10 rpm). The procedure is carried out using 5 ml of each solution studied to which has been added 6 mg of natural feminine sebum. The foam heights are recorded after one, two and three minutes of stirring.

- Foam Height (cm) at the end of a time of 180 sec: 20 cm
Compound: CCCCCCCCCCCC(=O)NCC(=O)NCC(=O)[O-].[Na+] [compound A, sodium salt of N-dodecanoyl-glycyl-glycine] (Lauroyl-Gly-Gly-OH)
